For experiment [1], the system named is U937 leukemia cells. Put plainly: U937 cell attachment at 60 h, alone or with 10 nM PMA. Particulars: ligand alone. The experiment is classed as cell-based.
The subject of experiment [2] is Toledo cells. Put plainly: Growth of Toledo cells. The experiment is classed as cell-based. Particulars: 72 h; for IC50: read-out: IC50, growth inhibition of Toledo cells.
In experiment [3] the test system is U937 leukemia cells. Particulars: proliferation and attachment assays; ref 12b-e; cited from earlier work.
Experiment [4] has as its target mCherry PKCδ (Homo sapiens, UniProt Q05655). Put plainly: Translocation of mCherry-tagged PKCδ in LNCaP cells. Particulars: 1 μM ligand. The format is cell-based.
Experiment [5] addresses PKCβII (Homo sapiens, UniProt P05771). Put plainly: Downregulation of PKCβII in U937 cells. The format is cell-based. Particulars: 24 h.
Experiment [6] addresses PKCδ (Homo sapiens, UniProt Q05655). Description: Downregulation of PKCδ in U937 cells. The format is cell-based. Particulars: 24 h.

Read-outs that look alike come from different tables or passages of the source.

Sequence of PKCβII (P05771 1-673 isoform P05771-2): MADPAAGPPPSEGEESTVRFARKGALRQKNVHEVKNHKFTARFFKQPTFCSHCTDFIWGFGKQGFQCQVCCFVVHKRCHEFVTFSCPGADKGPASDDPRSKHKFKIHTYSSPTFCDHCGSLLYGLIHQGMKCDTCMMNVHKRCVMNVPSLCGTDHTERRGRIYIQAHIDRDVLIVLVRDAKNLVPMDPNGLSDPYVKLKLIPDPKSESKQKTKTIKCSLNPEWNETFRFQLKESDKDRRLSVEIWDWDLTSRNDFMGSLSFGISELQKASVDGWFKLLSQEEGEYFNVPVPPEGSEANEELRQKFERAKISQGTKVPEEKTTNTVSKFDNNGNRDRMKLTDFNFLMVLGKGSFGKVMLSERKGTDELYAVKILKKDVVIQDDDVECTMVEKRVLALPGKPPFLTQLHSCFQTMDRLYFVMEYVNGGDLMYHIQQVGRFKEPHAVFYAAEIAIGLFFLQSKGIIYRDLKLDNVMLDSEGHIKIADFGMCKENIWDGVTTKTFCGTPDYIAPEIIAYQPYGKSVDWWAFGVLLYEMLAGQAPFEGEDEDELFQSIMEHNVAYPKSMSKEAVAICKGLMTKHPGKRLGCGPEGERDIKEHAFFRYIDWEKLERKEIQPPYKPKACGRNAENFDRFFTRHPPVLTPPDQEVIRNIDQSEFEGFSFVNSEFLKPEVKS
Sequence of mCherry PKCδ (Q05655 whole entry): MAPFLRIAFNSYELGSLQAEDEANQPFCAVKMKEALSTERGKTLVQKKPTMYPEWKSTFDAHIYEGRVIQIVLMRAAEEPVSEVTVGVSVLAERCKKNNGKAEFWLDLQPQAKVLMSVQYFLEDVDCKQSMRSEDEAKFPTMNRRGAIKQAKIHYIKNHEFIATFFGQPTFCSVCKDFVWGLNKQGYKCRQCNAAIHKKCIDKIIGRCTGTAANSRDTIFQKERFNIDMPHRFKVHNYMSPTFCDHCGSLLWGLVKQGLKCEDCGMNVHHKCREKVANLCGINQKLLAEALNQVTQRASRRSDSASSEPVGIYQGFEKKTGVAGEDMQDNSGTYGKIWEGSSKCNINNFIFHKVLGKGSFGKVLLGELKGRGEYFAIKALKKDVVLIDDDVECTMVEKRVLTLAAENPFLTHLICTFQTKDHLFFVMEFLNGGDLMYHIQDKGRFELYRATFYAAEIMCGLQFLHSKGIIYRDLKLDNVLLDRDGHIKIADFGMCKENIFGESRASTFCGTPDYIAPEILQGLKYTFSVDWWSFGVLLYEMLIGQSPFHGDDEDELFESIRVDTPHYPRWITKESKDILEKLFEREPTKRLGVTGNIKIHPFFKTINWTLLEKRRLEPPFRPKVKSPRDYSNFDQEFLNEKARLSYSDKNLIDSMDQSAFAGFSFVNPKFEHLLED
Sequence of PKCδ (Q05655 whole entry): as above

Take `CCC/C=C/C=C/C(=O)O[C@H]1/C(=C/C(=O)OC)C[C@H]2C[C@H]([C@@H](C)O)OC(=O)C[C@H](O)C[C@@H]3C[C@H](OC(C)=O)C(C)(C)[C@](O)(C[C@@H]4C/C(=C/C(=O)OC)C[C@H](/C=C/C(C)(C)[C@]1(O)O2)O4)O3` [bryostatin 1]: the “Effect on attachment of U937 cells” value in experiment [1] is “did not inhibit proliferation (Figure 1) or induce attachment”. Further, the “Effect on Toledo cell growth” value in experiment [2] is “inhibited Toledo cell growth”. Also, the IC50 in experiment [2] (Homo sapiens, Toledo) was found to be 0.091 ± 0.026 nM.
`C=C1C[C@H]2C[C@H]3C[C@@H](OC(C)=O)C[C@@H](C[C@@H](O)CC(=O)O[C@@H]([C@@H](C)O)C[C@@H]4C/C(=C\C(=O)OC)[C@H](OC(=O)CCCCCCC)[C@@](O)(O4)C(C)(C)/C=C/[C@@H](C1)O2)O3` [Merle 27]: the “Pattern of biological activity in U937 cells (PMA-like or bryostatin-like)” value (“Pattern of biological activity” for short) in experiment [3] is “PMA-like”.
With `CCCCCCCCCCCCCC(=O)O[C@@H]1[C@@H](C)[C@@]2(O)[C@@H](C=C(CO)C[C@]3(O)C(=O)C(C)=C[C@@H]23)[C@@H]2C(C)(C)[C@]12OC(C)=O` [PMA, phorbol 12-myristate 13-acetate], in experiment [1], the “Effect on attachment of U937 cells” value is “induced attachment”. Besides, the “Effect on Toledo cell growth” value in experiment [2] is given as “inhibited Toledo cell growth”. The IC50 in experiment [2] (Homo sapiens, Toledo) came to 0.57 ± 0.27 nM. In experiment [4], the “Translocation of PKCδ” value was “characteristic translocation of PKCδ to the plasma and nuclear membranes, as well as to internal membranes”. Besides, in experiment [5], the “Downregulation of PKCβII” value is listed as “downregulated PKCβII at 24 h”.
Take `C=C1C[C@@H]2C[C@@H]3CC(=C)C[C@H](/C=C/C(C)(C)[C@]4(O)O[C@@H](C/C(=C\C(=O)OC)[C@@H]4OC(=O)/C=C/C=C/CCC)C[C@H]([C@@H](C)O)OC(=O)C[C@H](O)C[C@H](C1)O2)O3` [Merle 23]: the “Effect on attachment of U937 cells” value in experiment [1] is on record as “induced attachment”. For the same compound, in experiment [2], the IC50 came to 0.33 ± 0.11 nM. For the same compound, the “Downregulation of PKCδ” value in experiment [6] is on record as “less potent than Merle 45 for downregulation but again showed no protection of PKCδ downregulation at high doses”. Moreover, in experiment [3], the “Pattern of biological activity” value is reported as “largely PMA-like”.
With `C=C1C[C@H]2CC3(O)O[C@H](C[C@@H](O)CC(=O)O[C@@H]([C@@H](C)O)C[C@@H]4C/C(=C\C(=O)OC)[C@H](OC(=O)/C=C/C=C/CCC)[C@@](O)(O4)C(C)(C)/C=C/[C@@H](C1)O2)C[C@H](OC(C)=O)C3(C)C` [Merle 28], in experiment [1], the “Effect on attachment of U937 cells” value is given as “did not inhibit proliferation (Figure 1) or induce attachment”. For the same compound, the IC50 in experiment [2] worked out at 0.111 ± 0.009 nM. Moreover, in experiment [3], the “Pattern of biological activity” value is recorded as “bryostatin-like”.

In general, IC50 refers to the concentration that inhibits the measured activity by half.

Values taken from paper PMC6980389 (Chembiochem : a European journal of chemical biology, 2018).
